# Starred links: 1 amine or outer side, 2 acyl side, 3 side chain; linkers in the order of their positions; H or OH if unused. Positions of bridges follow the written chain, without caps; N, C: chain ends. Non-standard residues stand in square brackets, D forms with d. Residues, ends and D or L forms follow the SMILES beside them. *: point of attachment. NMeAbu(3,3-F2-piperidino) = CN[C@@H](CCN1CCCC(F)(F)C1)C(=O)O; NMePhe(3-Cl) = CN[C@@H](Cc1cccc(Cl)c1)C(=O)O; hPhe(3-Cl) = N[C@@H](CCc1cccc(Cl)c1)C(=O)O; Tyr(3-F) = N[C@@H](Cc1ccc(O)c(F)c1)C(=O)O; X14 = O=C([C@H](CCc1ccccc1Cl)N[*:1])[*:2]; hNle(7,7-F2) = N[C@@H](CCCCC(F)F)C(=O)O; NMeF = CN[C@@H](Cc1ccccc1)C(=O)O; NMeGABA = CN(CCCC(=O)[*:2])[*:1]; NMeI = CC[C@H](C)[C@H](NC)C(=O)O; NMeD = CN[C@@H](CC(=O)O)C(=O)O; NMeL = CN[C@@H](CC(C)C)C(=O)O; Propyl(2R-OH) = C[C@@H](O)C*; NMeV = CN[C@H](C(=O)O)C(C)C; NPentylGly = CCCCCNCC(=O)O; NMeA = CN[C@@H](C)C(=O)O; Piperidide = C1CCN(*)CC1; NBuGly = CCCCNCC(=O)O; NPrGly = CCCNCC(=O)O; X11 = FC(F)C(F)(F)C*; Sar = CNCC(=O)O; tBu = CC(C)(C)*
# Assay: Caco-2 membrane permeability, improved method as used in the following Examples (96-well, 20 to 24 h preincubation)
# Assay type: in vitro ADME
# Settings: human, Caco-2, Caco-2
# How it was run: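 Papp (cm/sec) was derived from LC/MS of basal samples collected 180 min after apical dosing in FaSSIF/HBSS pH 6.0 with 1% DMSO, against a basal HBSS pH 7.4 receiver containing 4% BSA. Three-week Caco-2 cultures were first preincubated with compound in DMEM+FaSSIF at 37 °C for 20–24 h.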
row,Compound,Papp A→B at 180 min
1,CC(C)C[C@H]1C(=O)N[C@@H](CCc2cccc(Cl)c2)C(=O)N(C)[C@@H](CC(C)C)C(=O)N[C@@H]([C@@H](C)O)C(=O)N(C)CC(=O)N(C)[C@@H](Cc2ccccc2)C(=O)N(C)[C@@H](CC(C)C)C(=O)N[C@@H](COC(C)(C)C)C(=O)N(C)[C@@H](C(C)C)C(=O)N[C@H](C(=O)N2CCCCC2)CC(=O)N(C)CC(=O)N1C [pd357] ([Sar][NMeL][hPhe(3-Cl)][NMeL]T[Sar][NMeF][NMeL]S(tBu)[NMeV]D-Piperidide; lactam N-11),1.3 ×10⁻⁶ cm/s
2,CCCCCN1CC(=O)N(C)[C@@H](Cc2ccccc2)C(=O)N(C)[C@@H](CC(C)C)C(=O)N[C@@H](COC(C)(C)C)C(=O)N(C)[C@@H](CC(C)C)C(=O)N[C@H](C(=O)N2CCCCC2)CC(=O)N(C)CC(=O)N(C)[C@@H](Cc2ccccc2)C(=O)N[C@@H](C(C)C)C(=O)N(C)[C@@H](C)C(=O)N[C@@H]([C@@H](C)O)C1=O [pd404] ([Sar][NMeF]V[NMeA]T[NPentylGly][NMeF][NMeL]S(tBu)[NMeL]D-Piperidide; lactam N-11),1.3 ×10⁻⁶ cm/s
3,CC(C)C[C@H]1C(=O)N[C@H](C(=O)N2CCCCC2)CC(=O)N(C)[C@@H](C)C(=O)N[C@@H](CCc2ccccc2Cl)C(=O)N(C)[C@@H](CC(C)C)C(=O)N(C)[C@@H](CC(C)C)C(=O)N[C@@H](C)C(=O)N(C)[C@@H](Cc2ccccc2)C(=O)N(C)[C@@H](C(C)C)C(=O)N[C@@H]([C@@H](C)O)C(=O)N(C)CC(=O)N1C [pd353] ([NMeA][X14][NMeL][NMeL]A[NMeF][NMeV]T[Sar][NMeL]D-Piperidide; lactam N-11),1.4 ×10⁻⁶ cm/s
4,CC[C@H](C)[C@@H]1NC(=O)[C@H](CC(C)C)N(C)C(=O)[C@H](COC[C@@H](C)O)NC(=O)[C@H](Cc2ccccc2)N(C)C(=O)CN(C)C(=O)C[C@@H](C(=O)N2CCCCC2)NC(=O)[C@H](CC(C)C)N(C)C(=O)[C@H](COC(C)(C)C)NC(=O)[C@H](CC(C)C)N(C)C(=O)[C@H](Cc2ccccc2)N(C)C(=O)CN(C)C1=O [pd497] ([Sar][NMeF]S(Propyl(2R-OH))[NMeL]I[Sar][NMeF][NMeL]S(tBu)[NMeL]D-Piperidide; lactam N-11),3.3 ×10⁻⁶ cm/s
5,"CCCCN1CC(=O)N(C)[C@@H](C(C)C)C(=O)N[C@@H](CC(C)C)C(=O)N(C)[C@@H](Cc2ccccc2)C(=O)N(C)[C@@H](CCN2CCCC(F)(F)C2)C(=O)N[C@H](C(=O)N2CCCCC2)CC(=O)N[C@H](C)C(=O)N(C)[C@@H](Cc2ccccc2)C(=O)N[C@@H](CC(C)C)C(=O)N(C)[C@@H](CC(C)C)C(=O)N[C@@H]([C@@H](C)O)C1=O [pd388] ([dA][NMeF]L[NMeL]T[NBuGly][NMeV]L[NMeF][NMeAbu(3,3-F2-piperidino)]D-Piperidide; lactam N-11)",1.8 ×10⁻⁶ cm/s
6,CCCN1CC(=O)N(C)[C@@H](Cc2ccccc2)C(=O)N[C@@H](COCC(F)(F)C(F)F)C(=O)N(C)[C@@H](CC(C)C)C(=O)N[C@@H]([C@@H](C)O)C(=O)N(C)CC(=O)N(C)[C@@H](Cc2ccccc2)C(=O)N(C)[C@@H](CC(C)C)C(=O)N[C@@H](COC(C)(C)C)C(=O)N(C)[C@@H](CC(C)C)C(=O)N[C@H](C(=O)N2CCCCC2)CC1=O [pd349] ([NPrGly][NMeF]S(X11)[NMeL]T[Sar][NMeF][NMeL]S(tBu)[NMeL]D-Piperidide; lactam N-11),1.8 ×10⁻⁶ cm/s
7,"CC[C@H](C)[C@H]1C(=O)N[C@@H]([C@@H](C)O)C(=O)N(C)CC(=O)N(C)[C@@H](CC(C)C)C(=O)N[C@H](C(=O)N2CCCCC2)CC(=O)N(C)[C@@H](C)C(=O)N[C@@H](CCCCC(F)F)C(=O)N(C)[C@@H](CC(C)C)C(=O)N(C)[C@@H](Cc2ccccc2)C(=O)N[C@@H](C(C)C)C(=O)N(C)[C@@H](Cc2ccccc2)C(=O)N1C [pd334] ([NMeA][hNle(7,7-F2)][NMeL][NMeF]V[NMeF][NMeI]T[Sar][NMeL]D-Piperidide; lactam N-11)",2.4 ×10⁻⁶ cm/s

# Same assay, conditions: human, Caco-2, Caco-2 (cm/sec)
row,Compound,Papp A→B at 180 min
1,CC(C)C[C@@H]1NC(=O)[C@H](CC(C)C)N(C)C(=O)[C@H](C)N(C)C(=O)[C@@H](C(C)C)NC(=O)C[C@@H](C(=O)N2CCCCC2)NC(=O)[C@H]([C@@H](C)O)NC(=O)[C@H](C)N(C)C(=O)CN(C)C(=O)[C@H](CC(C)C)N(C)C(=O)[C@H](Cc2c[nH]c3ccccc23)NC(=O)[C@H](Cc2ccccc2)N(C)C1=O [pd100] ([dV][NMeA][NMeL]L[NMeF]W[NMeL][Sar][NMeA]TD-Piperidide; lactam N-11),0.11 ×10⁻⁶ cm/s
2,CC(C)C[C@H]1NC(=O)C[C@@H](C(=O)N2CCCCC2)NC(=O)[C@H](C)N(C)C(=O)[C@H](CC(C)C)N(C)C(=O)[C@H](COC(C)(C)C)NC(=O)[C@H](CC(C)C)N(C)C(=O)CN(C)C(=O)[C@H]([C@@H](C)O)NC(=O)[C@H](CC(C)C)N(C)C(=O)[C@H](Cc2ccc(O)c(F)c2)NC(=O)[C@H](Cc2ccccc2)N(C)C1=O [pd118] ([dL][NMeF][Tyr(3-F)][NMeL]T[Sar][NMeL]S(tBu)[NMeL][NMeA]D-Piperidide; lactam N-11),0.2 ×10⁻⁶ cm/s
3,CC(C)C[C@@H]1NC(=O)[C@H](Cc2ccccc2)N(C)C(=O)[C@H]([C@@H](C)O)NC(=O)[C@H](Cc2ccccc2)NC(=O)[C@H](Cc2ccccc2)N(C)C(=O)C[C@@H](C(=O)N2CCCCC2)NC(=O)[C@H](C)N(C)C(=O)[C@H](CC(C)C)N(C)C(=O)CN(C)C(=O)[C@H](CC(C)C)N(C)C(=O)[C@H](Cc2ccccc2)N(C)C1=O [pd230] ([NMeF]FT[NMeF]L[NMeF][NMeL][Sar][NMeL][NMeA]D-Piperidide; lactam N-11),0.25 ×10⁻⁶ cm/s
4,CC(C)C[C@@H]1NC(=O)[C@H](Cc2ccccc2)N(C)C(=O)[C@@H](C(C)C)NC(=O)C[C@@H](C(=O)N2CCCCC2)NC(=O)[C@H](CC(C)C)N(C)C(=O)[C@H](CC(C)C)N(C)C(=O)[C@H](Cc2ccc(O)c(F)c2)NC(=O)[C@H](CC(C)C)N(C)C(=O)CN(C)C(=O)[C@H]([C@@H](C)O)NC(=O)[C@H](CC(C)C)N(C)C1=O [pd128] ([dV][NMeF]L[NMeL]T[Sar][NMeL][Tyr(3-F)][NMeL][NMeL]D-Piperidide; lactam N-11),0.17 ×10⁻⁶ cm/s
5,CC[C@H](C)[C@@H]1NC(=O)[C@H](CC(C)C)N(C)C(=O)CCCN(C)C(=O)C[C@@H](C(=O)N2CCCCC2)NC(=O)[C@H](CC(C)C)N(C)C(=O)[C@H](C)N(C)C(=O)[C@H]([C@@H](C)O)NC(=O)[C@H](CC(C)C)N(C)C(=O)[C@H](Cc2ccc(O)c(F)c2)NC(=O)[C@H](CC(C)C)N(C)C(=O)[C@H](Cc2ccccc2)N(C)C1=O [pd119] ([NMeGABA][NMeL]I[NMeF][NMeL][Tyr(3-F)][NMeL]T[NMeA][NMeL]D-Piperidide; lactam N-11),0.16 ×10⁻⁶ cm/s
6,CC(C)C[C@H]1C(=O)N[C@@H](COC(C)(C)C)C(=O)N(C)[C@@H](Cc2ccccc2)C(=O)N(C)[C@@H](CC(C)C)C(=O)N(C)[C@H](C(=O)N2CCCCC2)CC(=O)N2CCC[C@@H]2C(=O)N(C)[C@@H](Cc2cccc(Cl)c2)C(=O)N[C@@H](C(C)C)C(=O)N(C)[C@@H](C(C)C)C(=O)N[C@@H]([C@@H](C)O)C(=O)N(C)CC(=O)N1C [pd165] ([dP][NMePhe(3-Cl)]V[NMeV]T[Sar][NMeL]S(tBu)[NMeF][NMeL][NMeD]-Piperidide; lactam N-11),2.8 ×10⁻⁶ cm/s
